This passage reports melting point results from a melting point compilation (Tetko et al.).

Broadly, the melting point is the temperature, or range, at which the solid turns liquid. `CCN(CC)c1ccc(C(=O)O)cc1` gave a melting point of 194 °C.

In the case of `CCN(Cc1ccc(Cl)nc1)C(=C[N+](=O)[O-])NC`, the melting point was 83.5 °C.

The compound `COc1cc2c(cc1OC)Cc1cc(OC)c(OC)cc1Cc1cc(OC)c(OC)cc1C2` yielded a melting point of 222 to 228 °C.

`COc1ccccc1/C=C(\C(N)=O)c1nc2ccccc2s1` gave a melting point of 174 °C.

The compound `O=Cc1ccc(CN2CCOCC2)cc1` returned a melting point of 53 to 56 °C.

For `CC(=O)Oc1ccc(Br)cc1`, the melting point stood at 21 °C.

The compound `CC1(C(=O)O)CCC2(C)CCC3(C)C(=CC(=O)C4C5(C)CCC(OC(=O)CCC(=O)O)C(C)(C)C5CCC43C)C2C1` (configuration not stated) yielded a melting point of 292 °C.

`Cc1ccc(NC(=O)C(C(F)(F)F)C(F)(F)F)c(C)c1` had a melting point of 193 °C.

For `NC(=O)C1=CNCCC1`, the melting point is 203 to 205 °C.

With `O=COc1ccc([N+](=O)[O-])cc1`, the melting point is 72 °C.

Compound `CNC(=O)c1cccnc1` returned a melting point of 104 °C.

The compound `O=[N+]([O-])c1cccc(-c2nnc3n2NCS3)c1` showed a melting point of 200 °C.

The compound `CCCCCCC(=O)c1ccccc1` displayed a melting point of 16.4 °C.

For the compound `C=C1CC1CC(N)C(=O)O` (configuration not stated), the melting point came out at 282 °C.

`COc1ccc(C=C(C(=O)O)C(=Cc2ccc(OC)c(OC)c2)C(=O)O)cc1OC` returned a melting point of 224 °C.

As to `Cc1ccc(C(=O)C(=O)c2ccc(Cl)cc2)cc1`, the melting point is 123 to 124 °C.

`CC(C)Cn1cnc2c(N)nc3ccccc3c21` returned a melting point of 293 °C.

In turn, `Cc1cccc(N=Nc2ccc(N(C)C)cc2)c1` yielded a melting point of 138 °C.

Compound `Cc1cc(C=O)cc(C)c1O` registered a melting point of 114 °C.

`CC(=O)Oc1cccc2c1C(=O)c1c(OC(C)=O)cc(C(=O)O)cc1C2=O` registered a melting point of 218 °C.

Compound `C=Cc1ccc(C(N)=O)cc1` showed a melting point of 170 °C.

In turn, `CC(C)c1cccc(C(C)C)c1O` showed a melting point of 18 °C.

As to `NNC(=O)C(=O)NC1CCCCC1`, the melting point worked out at 238 °C.

Compound `Cc1cccc([N+](=O)[O-])c1C` returned a melting point of 15 °C.

On to `CCc1ccc(C(=O)NN)cc1`, for which the melting point was 84 to 87 °C.

For `c1ccc2c(c1)c1cccc3ccc4cccc2c4c31`, the melting point was 180 to 182 °C.

In the case of `CC(=O)c1cccc(-c2ccccc2)c1`, the melting point was 36 °C.

`CCOC(=O)C(C#N)=Cc1ccc(-c2ccccc2)o1`: the melting point lay in the range of 116 to 117 °C.

Turning to `ClCc1nnc(C2CC2)s1`, the melting point is 80 to 84 °C.

With `CC(=O)OC1CCC2C3CCC4CC(C#Cc5ccccc5)(OC(C)=O)CCC4(C)C3CCC12C` (configuration not stated), the melting point lay in the range of 100 to 111 °C.

`Cn1nc(CO)cc1-c1cccs1` yielded a melting point of 56 to 60 °C.

Turning to `Oc1c2ccccc2cc2ccccc12`, the melting point came to 152 °C.

As for `Brc1cncc(Br)c1`, the melting point was determined as 112 °C.

`Cc1cc(C)c(N)c([N+](=O)[O-])c1` had a melting point of 67 °C.

In turn, `CCCCN(CCCC)c1ccccc1` registered a melting point of -32.2 °C.

`NCCCOCCCN`: the melting point was found to be 151 °C.

With `COC1=C(OC)C(C(O)CBr)OC1=O` (configuration not stated), the melting point is 96 °C.

Turning to `Cc1cc(N)ccc1F`, the melting point is 35 to 37 °C.

Compound `S=C=Nc1cccc2nsnc12` had a melting point of 88 to 89 °C.

`Cc1cnc2ccccc2c1C` registered a melting point of 73.5 °C.

The compound `CCSc1ccc2c(c1)N(CCCN1CCN(C)CC1)c1ccccc1S2` came in with a melting point of 63 °C.

Take `COc1cc(N)cc(OC)c1`: the melting point was 55 °C.

As for `C/C(CCc1oc2ccc(Cl)cc2c1-c1ccc(C)o1)=N/O`, the melting point is 114 to 115 °C.

In the case of `Cc1c(C)c(C)c2c(c1C)CC1C=CC=CN1C2=O` (configuration not stated), the melting point turned out to be 139 °C.

In turn, `C=CC1CC2C=CC1C2` (configuration not stated) displayed a melting point of -80 °C.

For the compound `CC(CCC(=O)O)C1CCC2C3C=CC4CCCCC4(C)C3CCC12C` (configuration not stated), the melting point lay within 152 to 160 °C.

In turn, `O=C(O)c1ccc(Cl)cc1O` gave a melting point of 210 °C.

In turn, `OCc1ccc(-c2ccco2)s1` yielded a melting point of 56 to 57 °C.

`COc1ccc(C(=O)NCc2cccnc2)cc1C(=O)NCc1cccnc1` displayed a melting point of 124 °C.

As to `Oc1ccc(CCc2nnc(S)n2-c2ccc(F)cc2)cc1`, the melting point is 204 to 205 °C.

Take `COc1cc(C=O)c([N+](=O)[O-])cc1OC`: the melting point was 133 °C.

The compound `C1CN2CCN3CCN1C23` registered a melting point of -14.7 °C.

On to `O=C(C(=O)c1ccc([N+](=O)[O-])cc1)c1ccccc1`, for which the melting point fell in the range of 141 to 143 °C.

For the compound `COC(=O)c1ccc(I)c(C)c1`, the melting point was 61 °C.

`NC(=S)c1ccno1` returned a melting point of 163 °C.

Regarding `O=C(O)/C=C/c1ccc(F)c(F)c1`, the melting point is 193 to 198 °C.

Compound `O=C(O)c1cc(F)c(F)c(Br)c1F` displayed a melting point of 123 °C.

The compound `CCOC(=O)c1c(SC)nc2ccc(Cl)cc2c1Cl` had a melting point of 134 to 137 °C.

Compound `O=Cc1ccccc1-c1ccccc1C(=O)O` had a melting point of 128 to 133 °C.

The compound `COC(=O)[C@H](CC(=O)O)Cc1ccc2ccccc2c1` showed a melting point of 64.7 °C.

Compound `COC(=O)c1cc2c(s1)-c1cc(Cl)ccc1SC2` came in with a melting point of 158 to 160 °C.

In turn, `CCc1c(C)[nH]c2c1C(=O)C(CN1CCOCC1)CC2` (configuration not stated) gave a melting point of 180 °C.

For the compound `N#CCc1nc(-c2ccc(Cl)c(Cl)c2)cs1`, the melting point was in the range of 106 to 107 °C.

`O=[N+]([O-])c1ccc(S(=O)(=O)Cl)cc1C(F)(F)F` displayed a melting point of 64 °C.

As for `Cc1nc2ccccc2nc1C`, the melting point came to 105 °C.

As to `CC(C)c1ccc2cc(C(C)C)ccc2c1`, the melting point stood at 69 °C.

As to `COC1=CC(C)C2CC3OC(=O)CC4C(C)=C(OC)C(=O)C(C2(C)C1=O)C34C` (configuration not stated), the melting point is 222 °C.

`CC(C)N1CSc2nnc(-c3cccc([N+](=O)[O-])c3)n2C1`: the melting point is 165 °C.

The compound `C=CC(OC(C)=O)OC(C)=O` came in with a melting point of -37.6 °C.

The compound `NNC(=O)CSC1CS(=O)(=O)c2cc([N+](=O)[O-])ccc21` (configuration not stated) showed a melting point of 181 to 182 °C.

`O=C(NC(=S)Nc1ccc(Cl)cc1)c1ccc(-c2ccccc2)cc1`: the melting point stood at 165 °C.

With `O=C(O)Cc1ccccc1Oc1ccc(Cl)cc1Cl`, the melting point amounted to 112 °C.

Take `COc1c(Cl)cc([N+](=O)[O-])c(OC)c1C(=O)O`: the melting point was 131 °C.

In turn, `CCCCC(=O)N(C)C` yielded a melting point of -51 °C.

`COC(=O)c1ccc2c(I)cn(C(=O)OC(C)(C)C)c2c1` registered a melting point of 154 to 155 °C.

Compound `CCOC(=O)c1cnn(C)c1N` gave a melting point of 101 to 102 °C.

`CC(O)CCc1ccc2c(c1)NC(C)CC2` (configuration not stated) gave a melting point of 79 °C.

Regarding `Oc1c(I)cc(I)c2cccnc12`, the melting point is 210 °C.

As for `COc1c(F)cc(N)cc1F`, the melting point came out at 79 °C.

Compound `COC(=O)c1cscc1Sc1ccc(Cl)cc1` had a melting point of 77 to 79 °C.

With `CCCN(CCC)C(=O)Cc1c(-c2ccc(Cl)cc2)nc2ccc(Cl)cn12`, the melting point stood at 140 °C.

In turn, `N#Cc1c(-c2ccc(Cl)cc2)n[nH]c1N` showed a melting point of 216 to 217 °C.

With `Cc1cc(C)nc(Nc2ccccc2)n1`, the melting point was found to be 96.3 °C.

Regarding `Cc1cc(Br)c(O)c(Br)c1`, the melting point is 50 °C.

`O=C(O)c1c(Cl)c(Cl)c(Cl)c(Cl)c1Cl` yielded a melting point of 209 °C.

With `NC(=S)c1cccc(-n2cccc2)c1`, the melting point is 110 to 112 °C.

`COc1ccc(Cl)c(Cl)c1` registered a melting point of -8 °C.

In turn, `CCc1cccc(CC)c1NC(=O)CCl` came in with a melting point of 130 °C.

Consider `Cc1c(C(C)OC(=O)CCC(=O)O)oc2ccc(C3=CC(=O)OC3)cc12` (configuration not stated), for which the melting point came out at 144 °C.

`COc1cc(OC)c(C(C)=O)c(OC)c1` showed a melting point of 103 °C.

The compound `COc1ccc(Cl)c([N+](=O)[O-])c1` yielded a melting point of 44 °C.

As for `Cc1n[nH]c2c1c(=O)n(-c1ccccc1)c1ccccc21`, the melting point lay in the range of 162 to 163 °C.

In the case of `Cc1cc(C(C)(C)C)c(O)c(C(C)(C)C)c1`, the melting point came to 71 °C.

As to `C[C@@]12CCC=C1[C@@H]1CC[C@@H]3C[C@H](O)CC[C@]3(C)[C@H]1CC2`, the melting point lay within 129 to 130 °C.

`O=P(N1CCOCC1)(N1CCOCC1)N1CCOCC1` registered a melting point of 190 °C.

With `C1CCN(C2CCNCC2)CC1`, the melting point stood at 68 °C.

Turning to `CC1=C(C)C(=O)c2ccccc2C1=O`, the melting point was found to be 127 °C.

Consider `O=C1C(Br)=C(c2ccccc2)c2ccccc21`, for which the melting point was found to be 111 °C.

With `COC(=O)c1cc(N)cc(O)c1`, the melting point lay within 124 to 126 °C.

`CC(C)c1cccc(O)c1` displayed a melting point of 26 °C.

Regarding `CC1=CCC(=C(C)C)CC1`, the melting point is under 25 °C.

As for `CC12CCCCC1CCC1C2CCC2(C)C1CCC21OCCO1` (configuration not stated), the melting point worked out at 143 °C.

As to `CC(C)(C)c1cc(O)ccc1O`, the melting point was 128 °C.

`C=CN1CCCCCC1=O` displayed a melting point of 34 °C.

The compound `O=P(Oc1ccccc1)(Oc1ccccc1)Oc1noc2ccccc12` displayed a melting point of 64 to 68 °C.

As for `CC(C)C[C@H](NC(=O)CN)C(=O)O`, the melting point fell in the range of 233 to 235 °C.

Compound `CNCC(O)c1cccc(NS(C)(=O)=O)c1` (configuration not stated) registered a melting point of 159 °C.

Turning to `CC(C)P(c1ccccc1)c1ccccc1`, the melting point is 40 °C.

Turning to `CC(O)C(NC(=O)OC(C)(C)C)C(=O)O` (configuration not stated), the melting point was 79 °C.

For the compound `O=C(c1ccccc1)c1noc(-c2ccc3ccccc3c2)c1S(=O)(=O)c1ccccc1`, the melting point was found to be 178 °C.

For `O=C1N[C@H]2[C@H](CS[C@H]2CCCCC(=O)ON2C(=O)CCC2=O)N1`, the melting point was 212 °C.

Compound `FC(F)(F)c1cccc(-c2noc(-c3cc(-c4ccccc4)c(C(F)(F)F)s3)n2)c1` yielded a melting point of 95 to 96 °C.
